Source: US20250311722A1, “IMPROVED BIOCIDE” (Purgos ApS, priority 2022, published 2025)
“And” between values parts separate entries of the source, which are not always exact repeats. Equal entries are not always repeated.

Legend:
Format in all cases: cell-based
bacteria [1] = assay: PVB dispersion treated with NBDA: microbial contamination by cATP (LuminUltra); design: bacteria count: unit not given here
bacteria [2] = assay: Tap water and polluted water treated with NDBA: bacteria count and BSI; conditions: 300 grams water, 32° C.
Bacillus cereus ISI 842 = assay: Minimal inhibitory concentration (MIC)
Procedure: (§1) Minimum inhibitory concentrations (MICs) are defined as the lowest concentration of an antimicrobial that will inhibit the visible growth of a microorganism after a standardized incubation. In the present study, MIC assay was performed by pipetting robot. The principle is that an indicator microorganism at a defined cell density is cultured with a range of concentrations of the test compound, one concentration pr, well in a row on the microtiter plate. For bacteria and yeasts the minimal inhibitory concentration was detected as no increase of optical density (OD), for moulds microtiter plates were read visually. Each indicator organism is tested in duplicate and the MIC is calculated as the average of the two determinations. The tested concentrations of the antimicrobial substances were 2-fold dilutions from 5%. All indicator organisms (see Table 2.) were pre-cultivated in a suitable growth medium and diluted in the same medium to give a final concentration in the assay of ˜1×10^3 cfu/ml. The microtiter plates were incubated under specific incubation conditions (see Table III). [table]

[3] = tested on: Lactobacillus brevis ISI 2269; assay: Minimal inhibitory concentration (MIC)
Procedure: as §1

[4] = tested on: Listeria monocytogenes ISI 22; assay: Minimal inhibitory concentration (MIC)
Procedure: as §1

[5] = tested on: Candida albicans ISI 1226; assay: Minimal inhibitory concentration (MIC)
Procedure: as §1

[6] = tested on: Debaryomyces hansenii ISI 12; assay: Minimal inhibitory concentration (MIC)
Procedure: as §1

[7] = 0.50% NBDA, 25° C.(RT), after 1 mo
[8] = 0.50% NBDA, 25° C.(RT), after 1 wk
[9] = 0.50% NBDA, 25° C.(RT), after 3 mo
[10] = 0.50% NBDA, 25° C.(RT), after 6 mo
[11] = 0.50% NBDA, 25° C.(RT), after 1 d
[12] = 1.00% NBDA, 25° C.(RT), after 1 mo
[13] = 1.00% NBDA, 25° C.(RT), after 1 wk
[14] = 1.00% NBDA, 25° C.(RT), after 3 mo
[15] = 1.00% NBDA, 25° C.(RT), after 6 mo
[16] = 1.00% NBDA, 25° C.(RT), after 1 d

## CCCCN(CCO)CCO [NBDA, N-butyldiethanolamine]
Bacteria [1]; [7]
  BSI: 13
  bacteria count: 34.8
  pH: 9.73
Bacteria [1]; [8]
  BSI: 17
  bacteria count: 147
  pH: 9.65
Bacteria [1]; [9]
  BSI: 67
  bacteria count: 22.7
  pH: 9.62
Bacteria [1]; [10]
  BSI: 50
  bacteria count: 5.77
  pH: 9.58
Bacteria [1]; [11]
  BSI: 4
  bacteria count: 2930
  pH: 9.77
Bacteria [1]; 0.50% NBDA, 32° C., after 1 mo
  bacteria count: 9.47
Bacteria [1]; 0.50% NBDA, 32° C., after 1 wk
  bacteria count: 81
Bacteria [1]; 0.50% NBDA, 32° C., after 3 mo
  bacteria count: 5.66
Bacteria [1]; 0.50% NBDA, 32° C., after 1 d
  bacteria count: 215
Bacteria [1]; 0.50% NBDA, 60° C., after 1 mo
  bacteria count: 126
Bacteria [1]; 0.50% NBDA, 60° C., after 1 wk
  bacteria count: 276
Bacteria [1]; 0.50% NBDA, 60° C., after 3 mo
  bacteria count: 4.2
Bacteria [1]; 0.50% NBDA, 60° C., after 1 d
  bacteria count: 420
Bacteria [1]; [12]
  BSI: 10
  bacteria count: 39.1
  pH: 9.86
Bacteria [1]; [13]
  BSI: 24
  bacteria count: 183
  pH: 9.89
Bacteria [1]; [14]
  BSI: 60
  bacteria count: 3.77
  pH: 9.93
Bacteria [1]; [15]
  BSI: 83
  bacteria count: 1.36
  pH: 9.67
Bacteria [1]; [16]
  BSI: 6
  bacteria count: 1530
  pH: 10.2
Bacteria [1]; 1.00% NBDA, 32° C., after 1 mo
  bacteria count: 17.9
Bacteria [1]; 1.00% NBDA, 32° C., after 1 wk
  bacteria count: 13.5
Bacteria [1]; 1.00% NBDA, 32° C., after 3 mo
  bacteria count: 0.94
Bacteria [1]; 1.00% NBDA, 32° C., after 1 d
  bacteria count: 338
Bacteria [1]; 1.00% NBDA, 60° C., after 1 mo
  bacteria count: 202
Bacteria [1]; 1.00% NBDA, 60° C., after 1 wk
  bacteria count: 387
Bacteria [1]; 1.00% NBDA, 60° C., after 3 mo
  bacteria count: 9.3
Bacteria [1]; 1.00% NBDA, 60° C., after 1 d
  bacteria count: 244
Bacteria [1]; concentration 0.5%, long term, RT, 32° C. and 60° C.
  effectiveness as sole biocide additive: highly effective as the sole biocide additive
Bacteria [2]; Polluted water + 0.5%
  BSI: 48
  bacteria count: 56.2
Bacteria [2]; Tapwater + 0.5%
  BSI: 56
  bacteria count: 7.35
Bacillus cereus ISI 842
  MIC (%): 1.25%
Bacillus cereus ISI 842; 0.02% NBDA
  MIC data (optical density): 0.797 and 0.933
Bacillus cereus ISI 842; 0.04% NBDA
  MIC data (optical density): 0.953 and 0.926
Bacillus cereus ISI 842; 0.08% NBDA
  MIC data (optical density): 0.880 and 0.764
Bacillus cereus ISI 842; 0.16% NBDA
  MIC data (optical density): 0.716 and 0.833
Bacillus cereus ISI 842; 0.31% NBDA
  MIC data (optical density): 0.811 and 0.739
Bacillus cereus ISI 842; 0.63% NBDA
  MIC data (optical density): 0.664 and 0.824
Bacillus cereus ISI 842; 1.25% NBDA
  MIC data (optical density): 0.108 and 0.143
Bacillus cereus ISI 842; 2.50% NBDA
  MIC data (optical density): 0.100 and 0.145
Bacillus cereus ISI 842; 5.00% NBDA
  MIC data (optical density): 0.087 and 0.120
[3]
  MIC (%): 0.16%
[3]; 0.02% NBDA
  MIC data (optical density): 0.509 and 0.458
[3]; 0.04% NBDA
  MIC data (optical density): 0.468 and 0.485
[3]; 0.08% NBDA
  MIC data (optical density): 0.465 and 0.586
[3]; 0.16% NBDA
  MIC data (optical density): 0.054 and 0.057
[3]; 0.31% NBDA
  MIC data (optical density): 0.049 and 0.048
[3]; 0.63% NBDA
  MIC data (optical density): 0.047 and 0.046
[3]; 1.25% NBDA
  MIC data (optical density): 0.047 and 0.045
[3]; 2.50% NBDA
  MIC data (optical density): 0.046 and 0.049
[3]; 5.00% NBDA
  MIC data (optical density): 0.043 and 0.040
[4]
  MIC (%): 1.25%
[4]; 0.02% NBDA
  MIC data (optical density): 1.182 and 1.216
[4]; 0.04% NBDA
  MIC data (optical density): 1.184 and 1.216
[4]; 0.08% NBDA
  MIC data (optical density): 1.165 and 1.119
[4]; 0.16% NBDA
  MIC data (optical density): 1.074 and 0.574
[4]; 0.31% NBDA
  MIC data (optical density): 1.027 and 0.645
[4]; 0.63% NBDA
  MIC data (optical density): 0.938 and 0.759
[4]; 1.25% NBDA
  MIC data (optical density): 0.047 and 0.048
[4]; 2.50% NBDA
  MIC data (optical density): 0.046 and 0.056
[4]; 5.00% NBDA
  MIC data (optical density): 0.045 and 0.056
[5]
  MIC (%): 0.63%
[5]; 0.02% NBDA
  MIC data (optical density): 1.272 and 1.291
[5]; 0.04% NBDA
  MIC data (optical density): 1.243 and 1.259
[5]; 0.08% NBDA
  MIC data (optical density): 1.223 and 1.256
[5]; 0.16% NBDA
  MIC data (optical density): 1.118 and 1.134
[5]; 0.31% NBDA
  MIC data (optical density): 0.886 and 0.984
[5]; 0.63% NBDA
  MIC data (optical density): 0.056
[5]; 1.25% NBDA
  MIC data (optical density): 0.051 and 0.050
[5]; 2.50% NBDA
  MIC data (optical density): 0.047 and 0.046
[5]; 5.00% NBDA
  MIC data (optical density): 0.042 and 0.044
[6]
  MIC (%): 1.25%
[6]; 0.02% NBDA
  MIC data (optical density): 1.027 and 1.215
[6]; 0.04% NBDA
  MIC data (optical density): 0.964 and 1.224
[6]; 0.08% NBDA
  MIC data (optical density): 0.974 and 1.114
[6]; 0.16% NBDA
  MIC data (optical density): 0.975 and 1.145
[6]; 0.31% NBDA
  MIC data (optical density): 0.877 and 0.973
[6]; 0.63% NBDA
  MIC data (optical density): 0.619 and 0.582
[6]; 1.25% NBDA
  MIC data (optical density): 0.047
[6]; 2.50% NBDA
  MIC data (optical density): 0.045 and 0.046
[6]; 5.00% NBDA
  MIC data (optical density): 0.044 and 0.043
